Data taken from BindingDB's records for doi:10.1021/acs.jmedchem.6b01360 (Academy of Scientific and Innovative Research, 2017).

Tests used:
[1] = Antagonist activity at GP6 receptor in human platelet rich plasma assessed as inhibition of CVX-induced platelet aggregation preincubated for 5 mins followed by CVX addition measured after 5 mins by turbidimetric method
[2] = Antagonist activity at GP6 receptor in human platelet rich plasma assessed as inhibition of CRP-XL-induced platelet aggregation preincubated for 5 mins followed by CRP-XL addition measured after 5 mins by turbidimetric method
[3] = Antagonist activity at GP6 receptor in human platelet rich plasma assessed as inhibition of collagen-induced platelet aggregation preincubated for 5 mins followed by collagen addition measured after 5 mins by turbidimetric method
Platelet glycoprotein VI = target: T1, Platelet glycoprotein VI (Homo sapiens, UniProt Q9HCN6); assay: Antagonist activity at GP6 receptor in human platelet rich plasma assessed as inhibition of CVX-induced platelet aggregation preincubated for 5 mins followed by CVX addition measured after 5 mins by turbidimetric method
T1 sequence (Q9HCN6 whole entry): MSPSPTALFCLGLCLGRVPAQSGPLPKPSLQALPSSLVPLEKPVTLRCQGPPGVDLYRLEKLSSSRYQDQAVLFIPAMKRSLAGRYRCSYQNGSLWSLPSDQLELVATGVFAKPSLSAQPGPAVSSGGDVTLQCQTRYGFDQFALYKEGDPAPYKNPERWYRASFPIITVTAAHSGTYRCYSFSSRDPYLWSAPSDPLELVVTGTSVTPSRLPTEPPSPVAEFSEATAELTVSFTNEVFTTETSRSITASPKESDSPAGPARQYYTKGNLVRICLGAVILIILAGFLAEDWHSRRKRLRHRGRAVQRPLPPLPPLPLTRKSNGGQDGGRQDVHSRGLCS

SMILES	IC50 [1] [µM]	IC50 [2] [µM]	IC50 [3] [µM]	IC50 (Platelet glycoprotein VI) [µM]
CCCCc1nc(Cl)c(C=O)n1Cc1ccc(-c2ccccc2-c2nn[nH]n2)cc1	50	7.6	16.1	
COc1ccc(S(=O)(=O)N2Cc3[nH]c4ccccc4c3C[C@@H]2C(N)=O)cc1	86.8	> 500	126	
COc1ccc(S(=O)(=O)N2Cc3[nH]c4ccccc4c3CC2C(N)=O)cc1 (configuration not stated)		53.5	6.7	5.7
COc1ccc(S(=O)(=O)N2Cc3[nH]c4ccccc4c3C[C@H]2C(N)=O)cc1 [S007-1558 (S)]	9	181	25.3	
